Data from patent US20250288583A1, “Treatment of Mucus Hypersecretion” (priority 2024, published 2025).
Entries after “also recorded” stand apart in the source; their conditions may differ.

Key:
[1] = biological target: T1, TRPA1 (Homo sapiens, UniProt O75762); assay: TRPA1 specificity assay in transfected cells; format: cell-based; details: FIG. 5; mustard oil positive control
T1 construct: expressed in transfected cells

[2] = test system: ostiomeatal complex; assay: Case studies: nebulized cooling agent in subjects with rhinitis and rhinosinusitis; format: in vivo, human; details: for Relief of stuffiness and breathing: NasoNeb delivery in subjects with rhinosinusitis
Text: Eight subjects with rhinitis and rhinosinusitis volunteered to test cooling agents delivered with the NasoNeb® nebulizer (FIG. 3). The results were clear, robust, and evident. No statistical analysis was necessary. In a 3 to 5-day course of nebulization t.i.d., all subjects reported the ability to manage and control stuffed-up breathing in their activities. All reported comfortable sleep. The sounds of sniffling and congestion of the nose (“sniffles”), snorting, or gurgling were still present, but to a lesser degree. The subject felt it was easier to blow out liquids from the nasal cavity onto a tissue, and the volume and frequency of blowing decreased. Viscous yellow mucus was less in volume and density. The number of wipes deposited daily into a waste basket decreased by >50%. The subjects-were cheerful and enthusiastic because nasal discomfort was under control. As one subject remarked: “The stuffed-up nose problem is now history!” Severat of these cases are reported below as “Case Studies.”
The subject was given a NasoNeb® nebulizer (unavailable in China) and five individual bottles containing 15 mL of a 1% GlyOiPr solution (suspended in 2% Tween 80, 5% ethanol, and 92% water). They were shown how to load the NasoNeb canister with about 2 mL of liquid and activate the device for a 3-second dose into each nostril. The recommended dosage was three times a day, starting in the morning and at about 6-hour intervals, and for five days.
The subject agreed to using the NasoNeb nebulizer with a cooling agent. They were given a NasoNeb nebulizer and three bottles, each containing 15 ml of a 1% GlyOiPr solution (suspended in 2% Tween 80, 5% ethanol, and 92% water). They were shown how to load the NasoNeb canister with about 2 mL of liquid and activate the device for a 3-second dose into each nostril. The recommended dosage was three times a day, starting in the morning and at about 6-hour intervals, and for five days. After a 5-day trial, the subject noted a significant improvement in sleep and comfortable breathing. […] Their headaches were gone, and their appetite improved. They were advised to continue using the Nebulizer/coolant for another week and then on an as-needed basis. Their family has noticed that the subject has become less withdrawn, more engaging, and interested in their surroundings.
The subject volunteered for a trial with GlyOiPr. They were given a NasoNeb® machine and a plastic squeeze bottle containing 50 mL of GlyOiPr at 3 mg/mL suspended in 1% ethanol/2% polysorbate 80. They learned how to load the canister and activate the pump. Then, they were instructed to rinse their nose thoroughly first thing in the morning and then use the Nebulizer at 5 sec per nostril to deliver the solution. The procedure was to be repeated at 2 hours and 5 hours later to total three daily activations. The subject was interviewed after dosing for three days. They said breathing was much easier at night after the dosing, and they slept well. Nasal secretions were still present but less in volume. […] They were encouraged to use the Nebulizer as needed but not to exceed three daily doses. Three weeks after the start of the experiment, they reported that they were in complete control of their rhinitis. They would do a single dose at night before sleep and one in the morning when needed. They no longer felt congested, and the headaches were gone. The slimy phlegm in the nostrils was gone, and crusting was absent. Their nose felt clean. Their social life improved.
Their main complaint was episodes at night when they would wake up and not be able to breathe comfortably. Sleep apnea and lung disorders were ruled out, and the diagnosis was rhinosinusitis. This was confirmed by a computerized tomography scan and endoscopic examination by a qualified ENT specialist. They agreed to test the preferred embodiments GlyOnPr, GlyOiPr, D-Ala-OnPr, and D-Ala-OiPr systematically, one after the other.

T1 sequence (O75762 whole entry, species assumed): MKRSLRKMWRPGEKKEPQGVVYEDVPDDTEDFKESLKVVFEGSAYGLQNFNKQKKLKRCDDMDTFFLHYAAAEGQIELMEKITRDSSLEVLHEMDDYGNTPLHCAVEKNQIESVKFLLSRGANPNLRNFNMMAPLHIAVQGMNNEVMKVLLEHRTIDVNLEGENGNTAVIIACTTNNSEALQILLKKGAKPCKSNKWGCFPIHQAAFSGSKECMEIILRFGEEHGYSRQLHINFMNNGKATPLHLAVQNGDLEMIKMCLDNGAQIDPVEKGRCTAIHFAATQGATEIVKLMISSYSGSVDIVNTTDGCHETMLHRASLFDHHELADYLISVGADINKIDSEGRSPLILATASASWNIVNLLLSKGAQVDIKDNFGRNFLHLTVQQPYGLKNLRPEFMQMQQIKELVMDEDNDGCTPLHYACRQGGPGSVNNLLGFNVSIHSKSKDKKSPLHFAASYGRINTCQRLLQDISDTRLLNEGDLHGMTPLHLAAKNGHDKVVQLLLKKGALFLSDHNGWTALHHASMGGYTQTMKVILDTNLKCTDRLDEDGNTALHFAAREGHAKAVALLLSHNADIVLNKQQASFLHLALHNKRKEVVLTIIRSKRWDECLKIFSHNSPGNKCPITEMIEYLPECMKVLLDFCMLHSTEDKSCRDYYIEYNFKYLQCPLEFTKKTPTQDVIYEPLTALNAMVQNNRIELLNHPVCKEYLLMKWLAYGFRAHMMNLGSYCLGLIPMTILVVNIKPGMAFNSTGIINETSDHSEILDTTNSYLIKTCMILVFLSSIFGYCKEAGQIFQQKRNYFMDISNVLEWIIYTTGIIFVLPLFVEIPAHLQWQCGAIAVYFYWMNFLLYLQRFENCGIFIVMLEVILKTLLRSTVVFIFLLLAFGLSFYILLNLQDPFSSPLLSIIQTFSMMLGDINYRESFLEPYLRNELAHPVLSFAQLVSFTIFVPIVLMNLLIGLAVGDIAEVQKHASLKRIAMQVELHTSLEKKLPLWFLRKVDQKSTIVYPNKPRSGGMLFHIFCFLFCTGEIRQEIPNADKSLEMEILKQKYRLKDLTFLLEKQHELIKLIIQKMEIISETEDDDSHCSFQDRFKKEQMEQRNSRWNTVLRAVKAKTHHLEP

Structure (SMILES) | Response of cells transfected with TRPA1 [1] | Relief of stuffiness and breathing [2] | Number of Kleenex tissues used after treatment ([2]; GlyOiPr by NasoNeb three times a day) | Decrease in number of wipes used to blow the nose ([2]; nebulization three times a day, several days)
CC(C)OC(=O)[C@@H](C)NC(=O)[C@@H]1C[C@H](C)CC[C@H]1C(C)C [D-Ala-OiPr, (R)-2-[((1R,2S,5R)-2-isopropyl-5-methyl-cyclohexanecarbonyl)amino]-propionic acid i-propyl ester] | inactive | provided relief |  | 
CC(C)OC(=O)CNC(=O)[C@@H]1C[C@H](C)CC[C@H]1C(C)C [GlyOiPr, [((1R,2S,5R)-2-isopropyl-5-methyl-cyclohexanecarbonyl)-amino]-acetic acid isopropyl ester] | do not respond; also recorded: activates TRPM8 but not TRPV1 or TRPA1 | immediate sensation of comfortable cooling in the nose and the ability to have unimpeded breathing; also recorded: provided relief | about five per day; also recorded: decline by half | at least 50%
